Test results as given in PubChem BioAssay AID220 (DTP/NCI, 2004).
Values joined by “and” are separate entries in the source; they are usually repeats but may differ in a detail not shown here. Equal entries are not always repeated. Results filed as inconclusive are left out.

Test system: CD8F1 mice, subcutaneous mammary adenocarcinoma, T/C%
Experiment: NCI In Vivo Anticancer Drug Screen. Data for tumor model Mammary Adenocarcinoma CD8F1 (subcutaneous) in CD8F1
Conditions: higher = larger tumour
Method in brief: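 Antitumor activity is assessed in transplantable-tumor mice by comparing the treated group with a vehicle-treated control group. Survival or tumor size serves as the measure, reported as T divided by C.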

[1] = endpoint: median tumor weight change, dose: 125.0 mg/kg/injection, schedule: Q01DX001 (ip), vehicle: saline with Tween-80
[2] = endpoint: median tumor weight change, dose: 62.5 mg/kg/injection, schedule: Q01DX001 (ip), vehicle: Klucel (hydroxypropylcellulose) (HPC)
[3] = endpoint: median tumor weight change, dose: 125.0 mg/kg/injection, schedule: Q01DX001 (ip), vehicle: Klucel (hydroxypropylcellulose) (HPC)
[4] = endpoint: median tumor weight change, dose: 250.0 mg/kg/injection, schedule: Q01DX001 (ip), vehicle: Klucel (hydroxypropylcellulose) (HPC)

With Nc1nc([Se])c2ncn(C3OC(CO)C(O)C3O)c2n1 (stereo not drawn) the T/C (endpoint: median tumor weight (est.), dose: 2.0 mg/kg/injection, schedule: Q07DX005 (ip), vehicle: saline) was 92 % of control, the T/C (endpoint: median tumor weight (est.), dose: 4.0 mg/kg/injection, schedule: Q07DX005 (ip), vehicle: saline) was 54 % of control and the T/C (endpoint: median tumor weight (est.), dose: 8.0 mg/kg/injection, schedule: Q07DX005 (ip), vehicle: saline) was 68 % of control. For the same compound, the T/C (endpoint: median tumor weight (est.), dose: 8.0 mg/kg/injection, schedule: Q07DX005 (ip), vehicle: suspension in saline) was 24 % of control, the T/C (endpoint: median tumor weight (est.), dose: 16.0 mg/kg/injection, schedule: Q07DX005 (ip), vehicle: saline) was 70 % of control and the T/C (endpoint: median tumor weight (est.), dose: 16.0 mg/kg/injection, schedule: Q07DX005 (ip), vehicle: suspension in saline) was 20 % of control. For the same compound, the T/C (endpoint: median tumor weight (est.), dose: 32.0 mg/kg/injection, schedule: Q07DX005 (ip), vehicle: saline) was 30 % of control, the T/C (endpoint: median tumor weight (est.), dose: 32.0 mg/kg/injection, schedule: Q07DX005 (ip), vehicle: suspension in saline) was 51 % of control and the T/C (endpoint: median tumor weight (est.), dose: 64.0 mg/kg/injection, schedule: Q07DX005 (ip), vehicle: saline) was 27 % of control. For the same compound, the T/C (endpoint: median tumor weight (est.), dose: 64.0 mg/kg/injection, schedule: Q07DX005 (ip), vehicle: suspension in saline) was 12 % of control.
c1cc[c]([Sn][c]2ccccc2)cc1 was tested, and the T/C (endpoint: median tumor weight (est.), dose: 1.25 mg/kg/injection, schedule: Q07DX005 (ip), vehicle: saline) was 101 % of control, the T/C (endpoint: median tumor weight (est.), dose: 2.5 mg/kg/injection, schedule: Q07DX005 (ip), vehicle: saline) was 91 % of control and the T/C (endpoint: median tumor weight (est.), dose: 5.0 mg/kg/injection, schedule: Q07DX005 (ip), vehicle: saline) was 86 % of control. For the same compound, the T/C (endpoint: median tumor weight (est.), dose: 10.0 mg/kg/injection, schedule: Q07DX005 (ip), vehicle: saline) was 68 % of control and the T/C (endpoint: median tumor weight (est.), dose: 20.0 mg/kg/injection, schedule: Q07DX005 (ip), vehicle: saline) was 50 % of control.
For CN(N=O)C(=O)N[C@@H](C=O)[C@@H](O)[C@H](O)[C@H](O)CO, the T/C (endpoint: median tumor weight (est.), dose: 16.0 mg/kg/injection, schedule: Q07DX005 (ip), vehicle: Klucel (hydroxypropylcellulose) (HPC)) was 90 % of control, the T/C (endpoint: median tumor weight (est.), dose: 16.0 mg/kg/injection, schedule: Q07DX005 (ip), vehicle: other) was 101 % of control and 109 % of control and the T/C (endpoint: median tumor weight (est.), dose: 32.0 mg/kg/injection, schedule: Q07DX005 (ip), vehicle: Klucel (hydroxypropylcellulose) (HPC)) was 98 % of control. The T/C (endpoint: median tumor weight (est.), dose: 50.0 mg/kg/injection, schedule: Q07DX005 (ip), vehicle: citric acid) was 98 % of control, the T/C (endpoint: median tumor weight (est.), dose: 64.0 mg/kg/injection, schedule: Q07DX005 (ip), vehicle: Klucel (hydroxypropylcellulose) (HPC)) was 95 % of control and the T/C (endpoint: median tumor weight (est.), dose: 64.0 mg/kg/injection, schedule: Q07DX005 (ip), vehicle: other) was 115 % of control. For the same compound, the T/C (endpoint: median tumor weight (est.), dose: 100.0 mg/kg/injection, schedule: Q07DX005 (ip), vehicle: citric acid) was 76 % of control, the T/C (endpoint: median tumor weight (est.), dose: 128.0 mg/kg/injection, schedule: Q07DX005 (ip), vehicle: other) was 87 % of control and the T/C (endpoint: median tumor weight (est.), dose: 200.0 mg/kg/injection, schedule: Q07DX005 (ip), vehicle: citric acid) was 84 % of control. For the same compound, the T/C (endpoint: median tumor weight (est.), dose: 256.0 mg/kg/injection, schedule: Q07DX005 (ip), vehicle: other) was 39 % of control and the T/C (endpoint: median tumor weight (est.), dose: 400.0 mg/kg/injection, schedule: Q07DX005 (ip), vehicle: citric acid) was 48 % of control.
In the case of Nc1nc2c(C(=O)N3CCCC3)nnn2c2ccccc12, the T/C (endpoint: median tumor weight change, dose: 62.5 mg/kg/injection, schedule: Q01DX001 (ip), vehicle: saline with Tween-80) is reported as 77 % of control and the T/C [1] is reported as 87 % of control.
With CCN(C)N=Nc1ccc(C(N)=O)cc1 the T/C (endpoint: median tumor weight change, dose: 50.0 mg/kg/injection, schedule: Q01DX001 (ip), vehicle: Klucel (hydroxypropylcellulose) (HPC)) was 51 % of control, the T/C [2] was 92 % of control and the T/C (endpoint: median tumor weight change, dose: 100.0 mg/kg/injection, schedule: Q01DX001 (ip), vehicle: Klucel (hydroxypropylcellulose) (HPC)) was 72 % of control. For the same compound, the T/C [3] was 91 % of control, the T/C (endpoint: median tumor weight change, dose: 200.0 mg/kg/injection, schedule: Q01DX001 (ip), vehicle: Klucel (hydroxypropylcellulose) (HPC)) was 44 % of control and the T/C [4] was 24 % of control. The T/C (endpoint: median tumor weight change, dose: 400.0 mg/kg/injection, schedule: Q01DX001 (ip), vehicle: Klucel (hydroxypropylcellulose) (HPC)) was 21 % of control.
For C[C@]12C=CC(=O)C=C1CC[C@@H]1[C@@H]2C(=O)C[C@@]2(C)[C@H]1CC[C@]2(O)C(=O)CO, the T/C (endpoint: mean tumor weight, dose: 25.0 mg/kg/injection, schedule: Q01DX009 (ip), vehicle: saline) was 173 % of control, the T/C (endpoint: mean tumor weight, dose: 37.5 mg/kg/injection, schedule: Q07DX006 (ip), vehicle: saline) was 37 % of control and the T/C (endpoint: mean tumor weight, dose: 75.0 mg/kg/injection, schedule: Q07DX005 (ip), vehicle: saline) was 93 % of control. The T/C (endpoint: mean tumor weight, dose: 75.0 mg/kg/injection, schedule: Q07DX006 (ip), vehicle: saline) was 42 % of control, the T/C (endpoint: mean tumor weight, dose: 75.0 mg/kg/injection, schedule: Q07DX007 (ip), vehicle: saline) was 10 % of control and the T/C (endpoint: mean tumor weight, dose: 100.0 mg/kg/injection, schedule: Q01DX009 (ip), vehicle: saline) was 61 % of control. For the same compound, the T/C (endpoint: mean tumor weight, dose: 150.0 mg/kg/injection, schedule: Q07DX005 (ip), vehicle: saline) was 95 % of control, the T/C (endpoint: mean tumor weight, dose: 150.0 mg/kg/injection, schedule: Q07DX006 (ip), vehicle: saline) was 23 % of control and the T/C (endpoint: mean tumor weight, dose: 200.0 mg/kg/injection, schedule: Q07DX005 (ip), vehicle: saline) was 9 % of control. For the same compound, the T/C (endpoint: mean tumor weight, dose: 300.0 mg/kg/injection, schedule: Q07DX006 (ip), vehicle: saline) was 6 % of control, the T/C (endpoint: mean tumor weight, dose: 400.0 mg/kg/injection, schedule: Q07DX005 (ip), vehicle: saline) was 21 % of control and the T/C (endpoint: mean tumor weight, dose: 800.0 mg/kg/injection, schedule: Q07DX005 (ip), vehicle: saline) was 1 % of control. The T/C (endpoint: median tumor weight (est.), dose: 100.0 mg/kg/injection, schedule: Q07DX005 (ip), vehicle: Klucel (hydroxypropylcellulose) (HPC)) was 33 % of control, the T/C (endpoint: median tumor weight (est.), dose: 200.0 mg/kg/injection, schedule: Q07DX005 (ip), vehicle: Klucel (hydroxypropylcellulose) (HPC)) was 26 % of control and the T/C (endpoint: median tumor weight (est.), dose: 400.0 mg/kg/injection, schedule: Q07DX005 (ip), vehicle: Klucel (hydroxypropylcellulose) (HPC)) was 15 % of control. The T/C (endpoint: median tumor weight (est.), dose: 800.0 mg/kg/injection, schedule: Q07DX005 (ip), vehicle: Klucel (hydroxypropylcellulose) (HPC)) was 13 % of control.
With NC(Cn1ccc(=O)c(O)c1)C(=O)O (stereo not drawn) the T/C (endpoint: median tumor weight change, dose: 100.0 mg/kg/injection, schedule: Q01DX001 (ip), vehicle: saline) was 82 % of control, the T/C (endpoint: median tumor weight change, dose: 200.0 mg/kg/injection, schedule: Q01DX001 (ip), vehicle: saline) was 69 % of control and the T/C (endpoint: median tumor weight change, dose: 400.0 mg/kg/injection, schedule: Q01DX001 (ip), vehicle: saline) was 52 % of control. For the same compound, the T/C (endpoint: median tumor weight change, dose: 1600.0 mg/kg/injection, schedule: Q01DX001 (ip), vehicle: saline) was 72 % of control.
In the case of COc1c(C=O)c2c(c(OC)c1OC)-c1ccc(OC)c(=O)cc1[C@@H](NC(C)=O)CC2, the T/C (endpoint: median tumor weight change, dose: 8.0 mg/kg/injection, schedule: Q01DX001 (ip), vehicle: Klucel (hydroxypropylcellulose) (HPC)) is reported as 76 % of control, the T/C (endpoint: median tumor weight change, dose: 15.62 mg/kg/injection, schedule: Q01DX001 (ip), vehicle: Klucel (hydroxypropylcellulose) (HPC)) is reported as 93 % of control and the T/C (endpoint: median tumor weight change, dose: 16.0 mg/kg/injection, schedule: Q01DX001 (ip), vehicle: Klucel (hydroxypropylcellulose) (HPC)) is reported as 88 % of control. The T/C (endpoint: median tumor weight change, dose: 31.0 mg/kg/injection, schedule: Q01DX001 (ip), vehicle: Klucel (hydroxypropylcellulose) (HPC)) was 54 % of control, the T/C (endpoint: median tumor weight change, dose: 31.25 mg/kg/injection, schedule: Q01DX001 (ip), vehicle: Klucel (hydroxypropylcellulose) (HPC)) was 69 % of control and the T/C (endpoint: median tumor weight change, dose: 62.0 mg/kg/injection, schedule: Q01DX001 (ip), vehicle: Klucel (hydroxypropylcellulose) (HPC)) was 17 % of control. For the same compound, the T/C [2] was 7 % of control.
With O=c1c(O)c(-c2cc(O)c(O)c(O)c2)oc2cc(O)cc(O)c12 the T/C (endpoint: median tumor weight (est.), dose: 12.5 mg/kg/injection, schedule: Q07DX005 (ip), vehicle: other) was 85 % of control, the T/C (endpoint: median tumor weight (est.), dose: 25.0 mg/kg/injection, schedule: Q07DX005 (ip), vehicle: other) was 85 % of control and the T/C (endpoint: median tumor weight (est.), dose: 50.0 mg/kg/injection, schedule: Q07DX005 (ip), vehicle: other) was 122 % of control. The T/C (endpoint: median tumor weight (est.), dose: 100.0 mg/kg/injection, schedule: Q07DX005 (ip), vehicle: other) was 70 % of control, the T/C (endpoint: median tumor weight (est.), dose: 200.0 mg/kg/injection, schedule: Q07DX005 (ip), vehicle: other) was 89 % of control and the T/C (endpoint: median tumor weight (est.), dose: 400.0 mg/kg/injection, schedule: Q07DX005 (ip), vehicle: other) was 70 % of control. The T/C [1] was 61 % of control, the T/C (endpoint: median tumor weight change, dose: 250.0 mg/kg/injection, schedule: Q01DX001 (ip), vehicle: saline with Tween-80) was 46 % of control and the T/C (endpoint: median tumor weight change, dose: 500.0 mg/kg/injection, schedule: Q01DX001 (ip), vehicle: saline with Tween-80) was 40 % of control.
CCc1c(CC(=O)O)c2cc(C)ccc2n1Cc1ccc(Cl)cc1 was tested, and the T/C [3] was 89 % of control and the T/C [4] was 101 % of control.
